Values after ≈ are worked out from the molar mass of the structure shown. Values joined by “and” are separate entries in the source; they are usually repeats but may differ in a detail not shown here. Equal entries are not always repeated. Blank lines part the entries; values can stand above or below the compound they belong to.
Assays:
[1] = test system: Rattus norvegicus; test: LD10; higher = less toxic; conditions: acute; inhalation
[2] = test system: Rattus norvegicus
[3] = test system: Mus musculus; conditions: oral, gavage
[4] = test system: Sus scrofa; conditions: repeat dose other; oral; diet; M/F; Not specified; Renal proximal tubule degeneration & interstitial nephropathy
[5] = test system: Rattus norvegicus; conditions: oral, gavage
[6] = test system: Rattus norvegicus; conditions: dietary / carcinogenicity; duration: 2 years; oral; feed; M/F; Hepatocellular lipid vacuolation
[7] = test system: Rattus norvegicus; test: LC100; higher = less toxic; conditions: acute; inhalation; Sprague-Dawley
[8] = test system: Oryctolagus sp.; conditions: New Zealand; for LD50: acute, dermal; for NOAEL: reproduction developmental, duration: 13 days, inhalation
[9] = test system: Cavia porcellus; conditions: uterotrophic; duration: 12 days; injection; subcutaneous; Guinea Pig; Active
[10] = test system: Mus musculus; test: LD100; higher = less toxic; conditions: acute; oral; gavage; B6C3F1
[11] = test system: Canidae; conditions: chronic, Beagle
[12] = test system: Rattus norvegicus; conditions: reproduction developmental; inhalation; whole body; M/F; Crl:CD(SD); Hepatic, Urinary
[13] = test system: Canidae; conditions: subchronic; duration: 13 weeks; oral; capsule; M/F; Dog Other; histopathologic liver
[14] = short-term, duration: 28 days, M, Sprague-Dawley, Clinical Observation: Salivation increase + Blood Chemistry: AST increase, T-Cho decrease, CRE increase, TP increase, ALB increase, GLUC …
[15] = short-term, duration: 18 days, inhalation, Sprague-Dawley
[16] = reproduction developmental, duration: 13 weeks, oral, gavage, Fischer 344, generation: F0
[17] = reproduction developmental, duration: 13 weeks, B6C3F1, generation: F0

SMILES: C=C1CC(=O)O1 [Diketene]
LD10 [1]: 1270 mg/m3 and ≥ 1190 mg/m3 and ≤ 1410 mg/m3 | LD50 ([2]; acute, oral, gavage): ≥ 400 mg/kg and ≤ 800 mg/kg | LD50 ([3]; acute): ≥ 800 mg/kg and ≤ 1600 mg/kg

SMILES: C[C@@H]1Cc2c(Cl)cc(C(=O)N[C@@H](Cc3ccccc3)C(=O)O)c(O)c2C(=O)O1 [Ochratoxin A]
LOEL [4]: 0.008 mg/kg-day | NOAEL [5, 14]: < 0.2 mg/kg-day | NOEL [5, 14]: < 0.2 mg/kg-day | NOEL ([5]; subchronic, duration: 13 weeks, M/F, Fischer 344, Body Weight Changes: decrease + Relative Organ Weight: Right kidney decrease + Histopathology: Kidney-Karyomegaly Kidney-Atrophy Kidney/…): < 0.0625 mg/kg-day

SMILES: COC(=O)Nc1nc2ccc(S(=O)c3ccccc3)cc2[nH]1 (configuration not stated) [Oxfendazole]
NOEL [6]: 0.7 mg/kg-day

SMILES: CCC#N [Propionitrile]
LC100 [7]: 90.3 mg/L | LC50 ([2]; acute, inhalation, Sprague-Dawley): 3.3 µg/mL (≈ 59.9 µM) | NOAEL ([2]; developmental, duration: 6 days, oral, gavage, Sprague-Dawley): 40 mg/kg-day | NOAEL ([2]; reproduction developmental, duration: 14 weeks, inhalation, Sprague-Dawley): > 471 mg/m3 | NOAEL ([2]; reproduction developmental, duration: 46 days, inhalation, Sprague-Dawley, generation: F0): 135 mg/m3 | NOAEL ([2]; reproduction developmental, duration: 46 days, inhalation, Sprague-Dawley, generation: F1): 473 mg/m3 | LOAEL [2, 15]: 741 mg/m3 | NOAEL [2, 15]: 259 mg/m3 | LD50 ([8]; occlusive): 90 mg/kg and 40 mg/kg and 56 mg/kg

LEL [9]: 0.1 mg/day
SMILES: CC/C(=C(\c1ccccc1)c1ccc(OCCN(C)C)cc1)c1ccccc1 [Tamoxifen]

SMILES: Clc1ccccc1 [Chlorobenzene]
LD100 [10]: 1000 mg/kg | NOEL ([5]; subchronic, duration: 13 weeks, M/F, Fischer 344, Deaths + Body Weight Changes: decrease + Urinalysis: Volume increase, Coproporphyrin increase + Blood Chemistry: Cho increase, TG decrease, …): < 60 mg/kg-day | LD50 ([2]; acute, oral, Sprague-Dawley): 1540 mg/kg | LD50 ([2]; acute, oral, gavage, Fischer 344): ≥ 2000 mg/kg and ≤ 4000 mg/kg | LOAEL [2, 16]: 250 mg/kg-day | NOAEL [2, 16]: 125 mg/kg-day | NOAEL ([2]; reproduction developmental, inhalation, Sprague-Dawley, generation: F0): 230 mg/m3 | NOAEL ([2]; reproduction developmental, inhalation, Sprague-Dawley, generation: F1): 2070 mg/m3 | NOAEL ([2]; reproduction developmental, inhalation, Sprague-Dawley, generation: F2): 2070 mg/m3 | NOAEL ([11]; duration: 6 months, inhalation): 2.06 mg/L | NOAEL ([11]; duration: 93 days, oral): 54.5 mg/kg-day | LOAEL [3, 17]: 250 mg/kg-day | NOAEL [3, 17]: 125 mg/kg-day | LD50 [8]: > 7940 mg/kg | NOAEL ([8]; F): 345 mg/m3 | NOAEL ([8]; generation: F1): 2720 mg/m3 | NOAEL [12]: 230 mg/m3 | LOAEL [13]: 54.5 mg/kg-day | NOAEL [13]: 27.2 mg/kg-day
